Consider seven compounds from article PMC8032764 (Scientific Reports, 2021).

In series [1] the target is GABAA α3β3γ2. As to conditions: Table S4a, cited from earlier work.
The target in series [2] is GABAA α2β3γ2. As to conditions: Table S4a, cited from earlier work.
Series [3] addresses GABAA α1β3γ2. As to conditions: Table S4a, cited from earlier work.
In series [4] the target is GABAA α5β3γ2. As to conditions: cited from earlier work.
In series [5] the test system is male Lister Hooded rats. Nature of the series: Diazepam-induced spatial learning impairment in the Morris water maze. The series is classed as in vivo, rat. As to conditions: diazepam 6 mg/kg i.p. As to the method:
The current study used a modified version of the standard acquisition protocol, in which pre-trained rats had to learn to locate a new platform position during six trials on the test day, as described previously. Subjects were semi-randomly divided into treatment groups based on their performance on the last training day. A computer tracking system (HVS Image Ltd, UK) was used to analyse each rat’s swim path on-line.
Latency, pathlength and swim speed (Supplementary Fig. S2) were analysed with a one-factor ANOVA. For the probe trial, to determine whether each treatment group had learned the spatial position of the platform, within-subjects ANOVA was used to compare percent time spent in the platform quadrant with the left, right and opposite quadrants. All significant cases were followed by a post hoc Newman–Keuls test. In addition, a comparison between vehicle treated and diazepam-treated rats on the percent time spent in the platform quadrant was analysed using an unpaired t-test.

Series [6] concerns Wistar rats. The series can be described thus: Pentylenetetrazole (PTZ) test. The format is in vivo, rat. As to conditions: positive control, 10 mg/kg i.p. 30 min prior to PTZ, p < 0.05. How it is done: PTZ was prepared in 0.9% saline and was administered s.c. in a volume of 1 mL/kg. The positive control FG7142, a non-selective GABAA receptor NAM, was prepared in 0.3% Tween 80 v/v saline and was administered i.p. in a volume of 1 mL/kg. […] During this period the number of rats showing tonic convulsions was noted.
FG7142 was administered at 10 mg/kg 30 min prior to PTZ. The percent of rats in each dose group showing tonic convulsions was compared to the control group by the Pearson Chi-Square test.

Series [7] has as its target human GABAA α5β3γ2 (Homo sapiens, UniProt P18507+P31644). Nature of the series: Two-electrode voltage clamp in Xenopus oocytes, current induced by EC10 of GABA. The series is classed as cell-based. The arrangement: expressed in transfected cells; host or cells: Xenopus laevis oocytes, cRNA injection. As to the method: Freshly prepared oocytes of maturation stage VI were bought from Ecocyte Bioscience (Castrop-Rauxel, Germany) and, after overnight delivery, plated into 96-well plates (Greiner no. 651101) for microinjection on a ROBOOCYTE R16 system (Multichannel Systems MCS GmbH, Reutlingen, Germany). Each oocyte was injected with roughly 50 nL of RNA solution. The solution for expressing receptors composed of the human α1, β2 and γ2 subunits contained 3 pg/nL of α1 and β2 RNA and 15 pg/nL of γ2 RNA. The solution for expressing human α2β3γ2 receptors contained 2.5 pg/nL of α2 and β3 RNA, 5 pg/nL of γ2 RNA and 10 pg/nL of GABARAP RNA. The solution for expressing human α3β3γ2 receptors contained 1.3 pg/nL of α3 and β3 RNA and 6.5 pg/nL of γ2 RNA. The solution for expressing human α5β3γ2 receptors contained 1.3 pg/nL of α5 and β3 RNA and 13 pg/nL of γ2 RNA. […] After the microinjection the oocytes were kept at 20 °C temperature until the electrophysiological experiment. Experiments were done 3 to 5 days later on the ROBOOCYTE instrument which employs the two-microelectrode voltage-clamp technique for membrane voltage control and current measurement. […] During current recording and compound testing the cell membrane was constantly clamped to − 80 mV. Current signals were recorded and stored on a PC-type computer using the ROBOOCYTE software.
(§1) During the microinjection and up to the electrophysiological experiment the oocytes were kept in a solution containing 88 mM NaCl, 1 mM KCl, 2.5 mM NaHCO3, 10 mM HEPES (AppliChem GmbH, Darmstadt, Germany), 0.82 MgSO4, 0.33 mM Ca(NO3)2, 0.33 mM CaCl2, 100 U/mL penicillin (GIBCO, ThermoFisher Scientific) and 100 µg/mL streptomycine (GIBCO, ThermoFisher Scientific). The pH was adjusted to 7.5. During the experiment the voltage-clamped oocyte was constantly superfused by a solution containing 90 mM NaCl, 1 mM KCl, 5 mM HEPES (AppliChem), 1 mM MgCl2 and 1 mM CaCl2 (pH 7.4). GABA and test compounds were added to this solution. GABA concentrations were chosen according to previously determined concentration–response relations for the different human GABAA receptor subunit combinations. Concentrations evoking approximately 10% of a maximal response were selected, i.e., 8 µM for α1β2γ2, 6 µM for α2β3γ2, 10 µM for α3β3γ2 and 5 µM for α5β3γ2. Solutions containing GABA or test compounds were freshly prepared at least every second day. […] Compounds were further diluted in DMSO and finally in extracellular saline to reach a DMSO concentration of 0.1%. The same amount of DMSO was added to the control solutions without test compounds.
During the experiment the solutions were fed into the well containing the voltage-clamped oocyte via Teflon tubings connected by electromagnetic valves which allowed rapid switching between different solutions (controlled by the ROBOCYTE software). Approximately 1–2 min after impaling an oocyte and switching to voltage-clamp mode GABA was applied for 90 s to record a control response. Thereafter the oocyte was washed with saline for 160 s followed by another 90 s GABA application. Then 30 s after the onset of the second GABA application the system switched to a solution containing GABA plus the test compound. Each oocyte was used for testing one concentration of a single test compound (for α5β3γ2: 1 nM: n = 8, 10 nM: n = 8, 100 nM: n = 7, 1000 nM: n = 7).
In this case each GABA application lasted 110 s and the rest period between the two GABA applications was 190 s long.
On each 96-well plate 3–6 oocytes were used for testing a known NAM at the BZD binding site, β-CCM (FG7106), as a positive control. […] Maximally effective concentrations of β-CCM were used for each subunit combination, i.e., 100 nM β-CCM for α1β2γ2, 300 nM for α2β3γ2 or α3β3γ2 and 1 µM for α5β3γ2.
For orientation: Two-electrode voltage clamp is typically applied to oocytes expressing channels or transporters.

The subject of series [8] is T1, human GABAA α2β3γ2.
T1 construct: expressed in transfected cells; host or cells: Xenopus laevis oocytes, cRNA injection
The series is described as above. The format is cell-based. To be noted: 300 nM β-CCM; not shown. How it is done: Freshly prepared oocytes of maturation stage VI were bought from Ecocyte Bioscience (Castrop-Rauxel, Germany) and, after overnight delivery, plated into 96-well plates (Greiner no. 651101) for microinjection on a ROBOOCYTE R16 system (Multichannel Systems MCS GmbH, Reutlingen, Germany). Each oocyte was injected with roughly 50 nL of RNA solution. The solution for expressing receptors composed of the human α1, β2 and γ2 subunits contained 3 pg/nL of α1 and β2 RNA and 15 pg/nL of γ2 RNA. The solution for expressing human α2β3γ2 receptors contained 2.5 pg/nL of α2 and β3 RNA, 5 pg/nL of γ2 RNA and 10 pg/nL of GABARAP RNA. The solution for expressing human α3β3γ2 receptors contained 1.3 pg/nL of α3 and β3 RNA and 6.5 pg/nL of γ2 RNA. The solution for expressing human α5β3γ2 receptors contained 1.3 pg/nL of α5 and β3 RNA and 13 pg/nL of γ2 RNA. GABARAP was added to the α2β3γ2 subunit mixture since the expression of γ2 would be low otherwise, as indicated by a weak effect of β-CCM[60]. After the microinjection the oocytes were kept at 20 °C temperature until the electrophysiological experiment. Experiments were done 3 to 5 days later on the ROBOOCYTE instrument which employs the two-microelectrode voltage-clamp technique for membrane voltage control and current measurement. […] During current recording and compound testing the cell membrane was constantly clamped to − 80 mV. Current signals were recorded and stored on a PC-type computer using the ROBOOCYTE software.
as §1, with “compounds. […]” for “compounds.”

Series [9] concerns male F-344 rats. The series can be described thus: Social approach avoidance test. To be noted: positive control, 3 mg/kg p.o., 30 min prior to testing.
Procedure: Experiments on social approach avoidance were performed as described previously by[41] and[14]. A tracking system (Ethovision, Noldus, The Netherlands) was used to analyse each rat’s pathway.

The Ki is a dissociation constant, usually derived from enzyme kinetics or from competition with a known ligand.

Where two headings read alike, the source gives them in different places.

human GABAA α5β3γ2, sequence (P31644 32-462): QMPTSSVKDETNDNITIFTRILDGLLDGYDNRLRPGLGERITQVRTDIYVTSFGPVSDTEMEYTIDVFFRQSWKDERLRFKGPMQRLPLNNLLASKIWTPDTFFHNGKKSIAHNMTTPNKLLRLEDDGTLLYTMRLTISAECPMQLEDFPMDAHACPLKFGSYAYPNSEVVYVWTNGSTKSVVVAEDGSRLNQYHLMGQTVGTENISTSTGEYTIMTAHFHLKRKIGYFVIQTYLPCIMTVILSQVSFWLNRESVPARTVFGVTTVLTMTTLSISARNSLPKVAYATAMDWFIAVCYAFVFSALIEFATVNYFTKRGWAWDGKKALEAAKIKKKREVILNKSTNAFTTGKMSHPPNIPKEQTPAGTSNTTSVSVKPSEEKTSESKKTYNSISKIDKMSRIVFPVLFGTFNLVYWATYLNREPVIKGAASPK
human GABAA α5β3γ2, sequence (P28472 26-473 partner): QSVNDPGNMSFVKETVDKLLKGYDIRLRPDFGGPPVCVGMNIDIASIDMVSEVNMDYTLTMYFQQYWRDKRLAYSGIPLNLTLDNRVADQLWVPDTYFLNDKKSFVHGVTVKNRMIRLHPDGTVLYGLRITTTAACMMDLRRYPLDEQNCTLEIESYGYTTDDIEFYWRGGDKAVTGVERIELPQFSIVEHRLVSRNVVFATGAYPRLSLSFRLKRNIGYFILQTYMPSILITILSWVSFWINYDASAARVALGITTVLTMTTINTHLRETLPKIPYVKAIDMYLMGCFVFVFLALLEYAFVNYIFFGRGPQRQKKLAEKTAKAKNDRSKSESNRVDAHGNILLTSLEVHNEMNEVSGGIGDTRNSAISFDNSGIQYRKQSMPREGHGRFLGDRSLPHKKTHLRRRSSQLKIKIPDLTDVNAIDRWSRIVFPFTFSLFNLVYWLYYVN
human GABAA α5β3γ2, sequence (P18507 40-475): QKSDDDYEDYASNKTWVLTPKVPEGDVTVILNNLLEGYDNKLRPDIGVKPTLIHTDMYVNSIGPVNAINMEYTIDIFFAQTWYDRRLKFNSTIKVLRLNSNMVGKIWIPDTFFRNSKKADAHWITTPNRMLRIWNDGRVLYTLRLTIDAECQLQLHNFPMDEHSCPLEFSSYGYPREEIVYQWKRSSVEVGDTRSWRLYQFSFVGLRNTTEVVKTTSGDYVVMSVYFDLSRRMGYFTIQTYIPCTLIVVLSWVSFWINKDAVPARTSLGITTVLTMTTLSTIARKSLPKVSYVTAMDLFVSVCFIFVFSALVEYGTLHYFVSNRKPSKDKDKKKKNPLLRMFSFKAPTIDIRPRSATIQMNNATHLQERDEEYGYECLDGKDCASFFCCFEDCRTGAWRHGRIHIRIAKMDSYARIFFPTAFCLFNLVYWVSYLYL

For the compound `CCOC(=O)c1ncn2c1[C@@H]1CCCN1C(=O)c1cc(OC)ccc1-2` [L-655,708], the inhibition constant (Ki) in series [1] (ref Atack et al., 2006) was 31 nM; in series [2] (ref Atack et al., 2006) it was 48 nM; in [3] (ref Atack et al., 2006), 70 nM; in series [4] (Table S4a, ref Atack et al., 2006, read-out: Ki α5β3γ2), 1 nM; in series [4] (discussion, no reference given, read-out: Ki at the GABAA-α5 receptor subtype), about 1 nM.

As for `COCc1ncn2c1CN(C)C(=O)c1cc(Cl)ccc1-2` [PWZ-029], the Ki in series [1] (ref Savić et al., 2008) was over 300 nM; in series [2] (ref Savić et al., 2008), over 300 nM; in [3] (ref Savić et al., 2008), 920 nM; in series [4] (Table S4a, ref Savić et al., 2008, read-out: Ki α5β3γ2) it was 30 nM.

Turning to `CN1C(=O)CN=C(c2ccccc2)c2cc(Cl)ccc21` [Diazepam, reference compound], in series [5], the “latency and pathlength to find the platform across six trials” value was “significantly increased the latency and pathlength”; the swim speed entry is given as “small but significant increase in swim speed”. Further, in [5] (30 min before test), the “probe trial, learning of the new platform position” value is on record as “significantly disrupted learning of the new platform position”.

For `CNC(=O)c1cc2c(cn1)[nH]c1ccccc12` [FG7142, N-Methyl-9H-pyrido[5,4-b]indole-3-carboxamide, reference compound], the “number of rats showing tonic convulsions” value in [6] is reported as “increased the number of rats showing tonic convulsions”.

In the case of `COC(=O)c1cc2c(cn1)[nH]c1ccccc12` [β-CCM, methyl beta-carboline-3-carboxylate, reference compound], the “reduction of the GABA-evoked current” value in series [7] (maximally effective concentration, 1 µM β-CCM, data not shown) is listed as 52%. Moreover, the “inhibition of GABA response” value in [8] was 42%.

For `CCOC(=O)c1ncn2c1CN(C)C(=O)c1cc(F)ccc1-2` [Flumazenil, reference compound], the “enhancement of the GABA-induced current” value in series [7] (30 and 1000 nM, concentration-dependent) is given as “up to 28%”.

Regarding `CN1Cc2c(C(=O)OC(C)(C)C)ncn2-c2ccsc2C1=O` [Ro 19-4603, reference compound], the “time in the social compartment” value in series [9] (p < 0.001) is recorded as “significantly decreased the time in the social compartment”. Also, the “time in the hidden area” value in series [9] (p < 0.05) was “increased the time in the hidden area”.
